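Grown in 96-well plates, cells were treated for 48 hours with each compound at five concentrations. Insufficient inhibition: endpoint recorded as highest concentration tested. GI50 marks 50% less growth.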 Activity calls are given as the source filed them. Cut-off read from the data, not from the text of the source: active = GI50 up to about 1.1 µM and inactive = higher. Where a SMILES comes first, the peptide text is derived from it. The star is where a group is joined. Cbz = O=C(OCc1ccccc1)*
What was measured:
Test in all cases: NCI tumour cell line growth inhibition, 48 h
SN12C = tested on: SN12C
CCRF-CEM = tested on: CCRF-CEM
SNB-75 = tested on: SNB-75
PC-3 = tested on: PC-3
A498 = tested on: A498
NCI-H460 = tested on: NCI-H460
NCI-H226 = tested on: NCI-H226
OVCAR-4 = tested on: OVCAR-4
MDA-MB-231 = tested on: MDA-MB-231
EKVX = tested on: EKVX
SF-268 = tested on: SF-268
DU-145 = tested on: DU-145
ACHN = tested on: ACHN
T47D = tested on: T47D
HCT-116 = tested on: HCT-116
BT-549 = tested on: BT-549
RXF 393 = tested on: RXF 393
HOP-92 = tested on: HOP-92
LOX IMVI = tested on: LOX IMVI
SF-295 = tested on: SF-295

Compound | GI50 (SN12C) | GI50 (CCRF-CEM) | GI50 (SNB-75) | GI50 (PC-3) | GI50 (A498) | GI50 (NCI-H460) | GI50 (NCI-H226) | GI50 (OVCAR-4) | GI50 (MDA-MB-231) | GI50 (EKVX) | GI50 (SF-268) | GI50 (DU-145) | GI50 (ACHN) | GI50 (T47D) | GI50 (HCT-116) | GI50 (BT-549) | GI50 (RXF 393) | GI50 (HOP-92) | GI50 (LOX IMVI) | GI50 (SF-295)
CCOC(=O)CCC(NC(=O)C(Cc1ccccc1)NC(=O)OCc1ccccc1)C(=O)OCC (stereo not drawn) (Cbz-Phe-Glu(OEt)-OEt; configuration not given here) | 20.7 µM (inactive) | 31.3 µM (inactive) | 18.7 µM (inactive) | 18.2 µM (inactive) | 21.2 µM (inactive) | 20.5 µM (inactive) | 16.6 µM (inactive) | 17.7 µM (inactive) | 14.9 µM (inactive) | 20.4 µM (inactive) | 16.2 µM (inactive) | 6.58 µM (inactive) | 17.4 µM (inactive) | 16.2 µM (inactive) | 18 µM (inactive) | > 100 µM (inactive) | 17.9 µM (inactive) | 18.5 µM (inactive) | 14.7 µM (inactive) | 19.8 µM (inactive)
CCCS(=O)(=O)Nc1ccc(Nc2c3ccccc3nc3ccccc23)c(OC)c1 | 0.127 µM (active) | 0.0475 µM (active) | 1.04 µM (active) | 3.88 µM (inactive) | 0.904 µM (active) | 0.0362 µM (active) | 1.46 µM (inactive) | 7.62 µM (inactive) | 3.32 µM (inactive) | 12.7 µM (inactive) | 0.853 µM (active) | 0.271 µM (active) | 0.362 µM (active) | 0.902 µM (active) | 0.929 µM (active) | 2.37 µM (inactive) | 5.19 µM (inactive) | 1.73 µM (inactive) | 0.315 µM (active) | 0.429 µM (active)
Cc1ccc(S(=O)(=O)OC2CN3CCC2CC3)cc1 (stereo not given) | > 100 µM (inactive) | 15.5 µM (inactive) | > 100 µM (inactive) | > 100 µM (inactive) | > 100 µM (inactive) | > 100 µM (inactive) | > 100 µM (inactive) | > 100 µM (inactive) | > 100 µM (inactive) | > 100 µM (inactive) | > 100 µM (inactive) | > 100 µM (inactive) | > 100 µM (inactive) | > 100 µM (inactive) | > 100 µM (inactive) | > 100 µM (inactive) | > 100 µM (inactive) | > 100 µM (inactive) | > 100 µM (inactive) | > 100 µM (inactive)
CN(C)c1ccc(/N=N\c2cccc3ccoc23)cc1 | > 75 µM (inactive) | > 100 µM (inactive) | > 84.3 µM (inactive) | 59.6 µM (inactive) | > 100 µM (inactive) | > 73.3 µM (inactive) | > 74.6 µM (inactive) | 29.4 µM (inactive) | > 76.9 µM (inactive) | 26.9 µM (inactive) | > 100 µM (inactive) | > 100 µM (inactive) | > 100 µM (inactive) | 61.7 µM (inactive) | 69.2 µM (inactive) | > 95.7 µM (inactive) | > 80.9 µM (inactive) | 70.5 µM (inactive) | > 100 µM (inactive) | 98.6 µM (inactive)
CN(C)CC1CCC/C(=C\c2ccc(OC(=O)/C=C/c3ccc(Cl)c(Cl)c3)cc2)C1=O (stereo not given) | 2.39 µM (inactive) | 0.597 µM (active) | 18.4 µM (inactive) | 3.33 µM (inactive) | 7.89 µM (inactive) | 3.86 µM (inactive) | 1.71 µM (inactive) | 22.9 µM (inactive) | 3.71 µM (inactive) | 5.9 µM (inactive) | 9.29 µM (inactive) | 8.97 µM (inactive) | 1.82 µM (inactive) | 2.44 µM (inactive) | 3.49 µM (inactive) | 3.42 µM (inactive) | 1.88 µM (inactive) | 1.79 µM (inactive) | 1.86 µM (inactive) | 7.11 µM (inactive)
N#Cc1cnn2c1n[n+]([O-])c1ccc(Cl)cc12 | 7.91 µM (inactive) | 1.75 µM (inactive) | 6.9 µM (inactive) | 14.7 µM (inactive) | 19.3 µM (inactive) | 11.4 µM (inactive) | 18.6 µM (inactive) | 2.23 µM (inactive) | 15.1 µM (inactive) | 2.9 µM (inactive) | 9.73 µM (inactive) | 14.9 µM (inactive) | 5.79 µM (inactive) | 17.3 µM (inactive) | 8.75 µM (inactive) | 12.8 µM (inactive) | 15 µM (inactive) | 2.19 µM (inactive) | 3.98 µM (inactive) | 14.7 µM (inactive)
Cc1c(CNc2ccc(Cl)c(Cl)c2Cl)cnc2nc(N)nc(N)c12 | 1.36 µM (inactive) | 0.125 µM (active) | 10.4 µM (inactive) | 2.58 µM (inactive) | > 100 µM (inactive) | 0.0615 µM (active) | 19.5 µM (inactive) | 14.5 µM (inactive) | 0.891 µM (active) | 4.2 µM (inactive) | 0.404 µM (active) | 0.294 µM (active) | 0.3 µM (active) | 4.24 µM (inactive) | 0.0208 µM (active) | 24.9 µM (inactive) | 11.9 µM (inactive) | 5.85 µM (inactive) | 0.064 µM (active) | 0.065 µM (active)
Cc1ccc(C(=O)/C=C2/Nc3ccc([N+](=O)[O-])cc3N/C2=C/C(=O)c2ccc(C)cc2)cc1 | > 100 µM (inactive) | 88.3 µM (inactive) | 10.6 µM (inactive) | 92.3 µM (inactive) | 44.7 µM (inactive) | > 100 µM (inactive) | > 100 µM (inactive) | 61.4 µM (inactive) | 29.1 µM (inactive) | 61.4 µM (inactive) | 52.4 µM (inactive) | > 100 µM (inactive) | 37.5 µM (inactive) | > 100 µM (inactive) | > 100 µM (inactive) | > 100 µM (inactive) | 36.6 µM (inactive) | 61.4 µM (inactive) | > 100 µM (inactive) | 41.3 µM (inactive)
COc1ccc(/C=C(\Cl)c2ccc(OC)c(OC)c2)cc1OC | > 100 µM (inactive) | > 100 µM (inactive) | > 100 µM (inactive) | > 100 µM (inactive) | > 43.5 µM (inactive) | > 100 µM (inactive) | > 100 µM (inactive) | > 67.6 µM (inactive) | > 100 µM (inactive) | > 100 µM (inactive) | > 100 µM (inactive) | > 100 µM (inactive) | > 100 µM (inactive) | > 100 µM (inactive) | > 100 µM (inactive) | > 100 µM (inactive) | > 90.4 µM (inactive) | 56 µM (inactive) | > 100 µM (inactive) | > 91.8 µM (inactive)
S=C1N=C(Cl)/C(=C\c2ccco2)N1 | > 100 µM (inactive) | > 100 µM (inactive) | > 74.6 µM (inactive) | > 100 µM (inactive) | > 100 µM (inactive) | > 100 µM (inactive) | > 80.5 µM (inactive) | > 47.2 µM (inactive) | > 100 µM (inactive) | > 100 µM (inactive) | > 100 µM (inactive) | > 100 µM (inactive) | > 100 µM (inactive) | > 100 µM (inactive) | > 100 µM (inactive) | > 100 µM (inactive) | > 100 µM (inactive) | > 100 µM (inactive) | > 100 µM (inactive) | > 100 µM (inactive)
Clc1ccc(C2c3ccccc3-c3nc4ccccc4n32)cc1 (stereo not given) | 42.1 µM (inactive) | 17.9 µM (inactive) | 24.3 µM (inactive) | 19.4 µM (inactive) | 25.1 µM (inactive) | 19.7 µM (inactive) | > 42.5 µM (inactive) | 15.9 µM (inactive) | > 84.1 µM (inactive) | 16.5 µM (inactive) | 25 µM (inactive) | 58.2 µM (inactive) | 23 µM (inactive) | > 27.2 µM (inactive) | 5.09 µM (inactive) | 43.5 µM (inactive) | 5.26 µM (inactive) | 34.8 µM (inactive) | 19.7 µM (inactive) | 3.48 µM (inactive)
COc1ccc(/C=C(\C(=O)OCC(C)C)c2ccc(OC)c(OC)c2)cc1OC | > 100 µM (inactive) | > 100 µM (inactive) | 47.2 µM (inactive) | > 100 µM (inactive) | > 100 µM (inactive) | > 100 µM (inactive) | > 100 µM (inactive) | > 100 µM (inactive) | 31 µM (inactive) | > 100 µM (inactive) | > 100 µM (inactive) | > 100 µM (inactive) | > 100 µM (inactive) | > 100 µM (inactive) | > 100 µM (inactive) | > 100 µM (inactive) | > 100 µM (inactive) | > 100 µM (inactive) | 74.6 µM (inactive) | 69.5 µM (inactive)
